Square brackets hold non-standard residues; d marks the D form. Peptide text beside a SMILES is read from it.
What was measured:
Format in all cases: physicochemical
[1] = Transmission electron microscopy of assemblies, fibril widths; details: assembled 21 days in PBS pH 7.4, 5% DMSO, 37 °C, washed with water, uranyl acetate stain; ImageJ, averages from 100–150 measurements
Experimental: Dried, disaggregated peptide aliquots were prepared for assembly as in sedimentation assays, but in larger volumes (greater than or equal to 5 mL) and were allowed to assemble for 21 days so as to allow for complete assembly of all samples. Following assembly, samples were centrifuged at 4300 × g for 90 min at 17 °C to collect aggregates. The supernatant was then carefully removed and deionized water added, mixed, and centrifugation repeated to wash. After first wash, supernatant was again removed and deionized water added and mixed, at which point samples were spotted for TEM or SEM if desired (below). Centrifugation was repeated once more and supernatant removed, and then samples were frozen and lyophilized. Lyophilized pellets were then placed on the solid-state stage of a Shimadzu FTIR-8400S (Shimadzu Corporation, Nakagyo-ku, Kyoto, Japan) spectrometer and analyzed at a resolution of 4 cm^−1.
Fibrils for the TEM images reported were obtained from the same samples that were used for FTIR, above, at the same timepoint. […] TEM images were recorded on a Hitachi 7650 transmission electron microscope in high contrast mode with an accelerating voltage of 80 kV. Fibril widths were measured in ImageJ and are reported as averages from 100–150 measurements.

[2] = HPLC sedimentation assay (modified Wetzel protocol) of peptide self-assembly / coassembly
Experimental: (§1) The self-assembly of L- and D-Ac-KLVFFAE-NH2 peptides was compared to the assembly properties of an equimolar mixture of the enantiomers. The peptides were prepared via standard Fmoc solid phase peptide synthesis, purified by reverse-phase HPLC, and characterized by MALDI-TOF mass spectrometry (see Materials and Methods section for experimental details and Supplementary Materials for characterization and purity data). Prior to self-assembly, peptides were disaggregated by sequential treatment with trifluoroacetic acid and hexafluoroisopropanol using a modified Wetzel protocol; peptide concentrations were determined by comparison to standard analytical HPLC curves (see Supplementary Materials for details), as described previously for studies with Aβ(16–22). Disaggregated, lyophilized peptides were then dissolved in DMSO and diluted into phosphate-buffered saline (pH 7.4) to reach total peptide concentrations of 110 μM (55 μM of each L- and D-enantiomer for mixed coassembly studies) (final DMSO concentration was 5% v/v). Upon dilution, peptides were incubated at 37 °C for assembly.
Comparison of self-assembly and coassembly of Aβ(16–22) was conducted by a time-dependent sedimentation analysis. For these studies, we adapted Wetzel’s HPLC sedimentation protocol that we have previously used to assess Aβ(16–22) self-assembly. Aliquots of self-assembly and coassembly mixtures were removed over time and subjected to ultracentrifugation to remove fibrils and […] order aggregates after which the concentration of unaggregated peptide was quantified. In these analyses, equilibrium between monomer and fibril is eventually reached, with the final monomer concentration, or critical concentration (Cr), providing a quantitative characterization of the dynamic equilibrium between fibrils of length n and monomer with fibrils of length n + 1. […]
Sedimentation assays were performed using a modified Wetzel protocol. […] These solutions were then analyzed by analytical HPLC for correlation to a concentration curve to determine remaining monomer concentration.

[3] = Visual observation of precipitate after dilution into PBS; details: 110 μM total peptide, DMSO stock diluted into PBS pH 7.4, 5% v/v DMSO
Experimental: as §1

| width of assemblies (TEM) [1] | critical concentration (Cr), final monomer concentration at equilibrium ([2]; 110 μM total peptide (55 μM each enantiomer in mixture), PBS pH 7.4, 5% v/v DMSO, 0.1% NaN3, 37 °C, up to 21 days, aliquots centrifuged 436,000 × g 1 h 4 °C, supernatant monomer by analytical HPLC) | ΔG for addition of monomer to fibril at equilibrium ([2]; from Cr = 1/Ka, PBS pH 7.4, 5% DMSO, 37 °C, 110 μM total peptide) | Compound | time to reach equilibrium (constant monomer concentration) ([2]; 110 μM total peptide, PBS pH 7.4, 5% DMSO, 37 °C, monomer by HPLC after ultracentrifugation) | visible precipitate immediately after gentle mixing [3] |
| --- | --- | --- | --- | --- | --- |
| 11.8 ± 0.5 nm |  |  | CC(=O)N[C@@H](CCCCN)C(=O)N[C@@H](CC(C)C)C(=O)N[C@H](C(=O)N[C@@H](Cc1ccccc1)C(=O)N[C@@H](Cc1ccccc1)C(=O)N[C@@H](C)C(=O)N[C@@H](CCC(=O)O)C(N)=O)C(C)C [L-Aβ(16–22), Ac-KLVFFAE-NH2] (Ac-KLVFFAE-NH2) |  |  |
|  | 24 ± 6 µM | -6.6 ± 0.2 kcal/mol | Ac-KLVFFAE-NH2 [single enantiomer Aβ(16–22), self-assembled single enantiomer Aβ(16–22) sample (L- or D-enantiomer alone), pleated β-sheet] | required over two weeks to reach a constant monomer concentration | not in the single enantiomer self-assembly controls |
| 11.8 ± 0.5 nm |  |  | CC(=O)N[C@H](CCCCN)C(=O)N[C@H](CC(C)C)C(=O)N[C@@H](C(=O)N[C@H](Cc1ccccc1)C(=O)N[C@H](Cc1ccccc1)C(=O)N[C@H](C)C(=O)N[C@H](CCC(=O)O)C(N)=O)C(C)C [D-Aβ(16–22), D-Ac-KLVFFAE-NH2] (Ac-[dK][dL][dV][dF][dF][dA][dE]-NH2) |  |  |
